Assay results from article PMC12392461, “Beyond Estrogenicity: A Comparative Assessment of Bisphenol A and Its Alternatives in In Vitro Assays Questions Safety of Replacements” (Environmental Science & Technology, 2025).
Where two headings read alike, the source gives them in different places.

Columns and labels:
[1] = system: Antioxidant response element; experiment: MitoOxTox: oxidative stress response in AREc32; settings: for EC10, linear: linear model fit
Source text: (§1) All bioassay media components and the ERα-UAS-bla GripTite and PPARγ-UAS-bla cells were obtained from Thermo Fisher Scientific (Waltham, MA, USA). AREc32 reporter gene cells based on MCF7 were provided by C. Roland Wolf (Cancer Research UK); AhR CALUX cells (H4L7.5c2 derived from H4IIe) were provided by Michael Denison (UC Davis, USA); and SH-SY5Y cells were purchased from Sigma-Aldrich.
(§2) Cell culture conditions and bioassay protocols including response detection are provided in Text S2.1–2.4 and Table S3. − Cell viability was determined from cell confluency using an IncuCyte S3 Live-Cell Analysis System (Sartorius AG, Essen, Germany) before and after exposure, except for SH-SY5Y cells (live–dead staining with Nuclear Green LcS1 and propidium iodide, Abcam, UK). For metabolic activation experiments, cell viability was assessed using the ToxBLAzer DualScreen Kit (Thermo Fisher Scientific) to capture the remaining toxicity in ERα-UAS-bla GripTite after treatment with the aCYP catalyst (details in Text S2.4).
(§3) For ARE, the concentration that triggered an induction ratio of 1.5 (ECIR1.5) was used as the benchmark value, as detailed in Text S2.5. IC10 values also served as a threshold for data analysis in all assays; only concentrations below IC10 were considered when deriving EC10 or ECIR1.5. […]
(§4) S2: Cell culture and bioassays
(§5) S2.1: Cell Culturing Conditions
(§6) All suppliers and sources are given in detail in SI-Excel S3. The bioassay media for the different assays were prepared as follows: Assay medium for ER alpha-UAS-bla GripTite (ERα) and PPAR gamma-UAS-bla 293H (PPARγ) was prepared with 98% Opti-MEM, supplemented with 2% charcoal-stripped FBS, and 100 U/mL penicillin-streptomycin. MitoOxTox and AhR assay medium was comprised of 90% DMEM with GlutaMAX, supplemented with 10% FBS, and 100 U/mL penicillin-streptomycin. Neurotoxicity assay medium consisted of the neurobasal […]
(§7) (1 picture or pasted object on this page, not shown here) […]
(§8) medium, supplemented with 2% B-27 Supplement and 2 mM GlutaMAX Supplement. SH - SY5Y cells were differentiated with 10 µM all-trans retinoic acid prior to the assay.
(§9) S2.2: Cell Seeding and Incubation. For all bioassays, cell suspensions in the respective assay medium were dispensed into each well of 384-well plates using a MultiFlo Dispenser (Biotek, (now Agilent), Winooski, VT, U.S.). After seeding, the plates were incubated at 37° C and 5% CO₂ for […]. The final cell densities and plate types were as follows: Black poly-D-lysine coated 384-well plates (Product No. 354663, Corning Inc., NYC, U.S.) were used for PPARγ:
(§10) 6500 cells/well, ERα: 5000 cells/well. White 384-well plates with a clear bottom (Product No.
(§11) 781098, Greiner, Kremsmünster, Austria) were utilized for the MitoOxTox assay: 2650

H4IIe (AhR CALUX) = settings: for IC10, H4IIe, AhR: H4IIe (AhR assay cells)
Description: as §2
(§12) For ARE, the concentration that triggered an induction ratio of 1.5 (ECIR1.5) was used as the benchmark value, as detailed in Text S2.5. IC10 values also served as a threshold for data analysis in all assays; only concentrations below IC10 were considered when deriving EC10 or ECIR1.5.
(§13) We measured the cytotoxicity of BPA and its alternatives in HEK293H (PPARγ), HEK293T (ERα), H4IIe (AhR CALUX), MCF7 (ARE/MMP), and differentiated SH-SY5Y cells (Table S6). […]
as §9, with “coated 384-well plates (Product No. 354663, Corning Inc., NYC, U.S.) were used for PPARγ:” left out
as §10
(§14) NYC, U.S.) for AhR: 3250 cells/well. Black Collagen I coated plates were used (Product No.
(§15) S2.3: Chemical Dosing and Assay Analysis Procedures. The dosing procedure and high-throughput assay workflow have been described in detail before. 9 The dosing concentrations […]
(§16) Stock solutions were then either added directly to the respective cell culture medium or evaporated under nitrogen, followed by replenishment with fresh medium. The final solvent content in each well was kept below 1% for methanol, 0% for acetonitrile.
(§17) Dosing plates were prepared as 11 -step serial dilutions using a Hamilton Microlab Star robotic system (Hamilton, Bonaduz, Switzerland), and chemicals were dosed in duplicates by transferring 10 μL twice from the dosing plates to the cell plates . After quantifying cell confluency as described in S2. 4., the exposed cells were incubated at 37° C and 5% CO₂ for an additional 24 h. All chemicals were tested in all assays with at least three independent […]
(§18) S2.4: Cell Viability Measurement s and bioanalytical protocols . The confluency as a measure of cell viability was determined with an IncuCyte S3 Live -Cell Analysis System (Sartorius AG, Essen, Germany). With this method the confluency of cells in a microscopy image are normalized to control wells without cells and compared before and after 24 hours of exposure.
(§19) This method has been described previously 13. […]

HEK293T (ERα) = settings: for IC10, HEK293, ERα: HEK293 (ERα assay cells)
Description: as §2, §12, §13
as §9, with “coated 384-well plates (Product No. 354663, Corning Inc., NYC, U.S.) were used for PPARγ:” left out
as §10, §14, §15, §16, §17, §18, §19

SH-SY5Y cells = experiment: cells; settings: for EC10, linear: linear model; for EC10: Homo sapiens, SH-SY5Y;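 for Relative effect potency REPNOI: EC10 of BPA divided by EC10 of the test compound so values above 1 mean more potent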;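 for Specificity ratio (SRbaseline) SRNOI: ratio of predicted baseline cytotoxicity IC10 to the neurite outgrowth inhibition EC10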
Source text: as §1, §2, §3, §4, §5, §6, §7, §8, §9, §10, §11

MCF7 (ARE/MMP) = settings: for IC10, linear transformed / IC10, linear / logIC10: dosing range all; for IC10, MCF7, ARE: MCF7, ARE readout; for IC10, MCF7, MMP: MCF7, MMP readout
Description: as §2, §12, §13
as §9, with “coated 384-well plates (Product No. 354663, Corning Inc., NYC, U.S.) were used for PPARγ:” left out
as §10, §14, §15, §16, §17, §18, §19

HEK293H (PPARγ) = settings: for logIC10: log-logistic model; for IC10, HEK293, PPARγ: cytotoxicity, HEK293 (PPARγ assay cells)
Description: as §2, §12, §13
as §9, with “coated 384-well plates (Product No. 354663, Corning Inc., NYC, U.S.) were used for PPARγ:” left out
as §10, §14, §15, §16, §17, §18, §19

[2] = Bioassay ARE, cytotoxicity, linear model fit
[3] = Bioassay ARE, cytotoxicity, log-logistic model fit
[4] = MMP bioassay cytotoxicity, linear model
[5] = MMP bioassay cytotoxicity, log-logistic model
[6] = PPARγ bioassay cytotoxicity, dosing range all
[7] = read-out: EC10, linear transformed

| Structure (SMILES) | EC10, linear ([1]; Bioassay ARE, dosing range all) | EC10, linear (SH-SY5Y cells; NOI bioassay, dosing range all) | IC10, H4IIe, AhR (H4IIe (AhR CALUX); cytotoxicity) | EC10 (SH-SY5Y cells; read-out: EC10, NOI) | EC10 (SH-SY5Y cells; read-out: EC10, NOI (M)) | IC10, linear transformed (MCF7 (ARE/MMP); Bioassay ARE, cytotoxicity) | IC10, linear (MCF7 (ARE/MMP); [2]) | logIC10 (MCF7 (ARE/MMP); [3]) | IC10, linear transformed (MCF7 (ARE/MMP); MMP bioassay cytotoxicity) | IC10, linear (MCF7 (ARE/MMP); [4]) | logIC10 (MCF7 (ARE/MMP); [5]) | IC10, MCF7, ARE (MCF7 (ARE/MMP); cytotoxicity) | IC10, MCF7, MMP (MCF7 (ARE/MMP); cytotoxicity) | IC10, HEK293, ERα (HEK293T (ERα); cytotoxicity) | IC10, linear transformed (HEK293H (PPARγ); [6]) | logIC10 (HEK293H (PPARγ); [6]) | IC10, HEK293, PPARγ (HEK293H (PPARγ)) | EC10 (SH-SY5Y cells; [7]) | other results |
| --- | --- | --- | --- | --- | --- | --- | --- | --- | --- | --- | --- | --- | --- | --- | --- | --- | --- | --- | --- |
| CC(C)(c1cc(Br)c(O)c(Br)c1)c1cc(Br)c(O)c(Br)c1 [TBBPA, 3,3',5,5'-Tetrabromobisphenol A] | no effect | no effect | – | – | – | – | – | – | – | – | – | – | – | – | – | – | – | – | logEC10 [1]: no effect; logIC10 (H4IIe (AhR CALUX); rat, 24 h): -3.80; IC10, linear (HEK293T (ERα)): no cytotoxicity; logIC10 (HEK293T (ERα); human, 24 h): -4.81; logEC10 (SH-SY5Y cells): no effect |
| CC1(C)[C@H](O)C(C)(C)[C@H]1O [t-TMCD, trans-2,2,4,4-Tetramethyl-1,3-cyclobutanediol] | – | – | 8940 µM | 0.00415 M | 0.00415 M | – | – | – | – | – | – | – | – | – | – | – | – | – | Toxic ratio (TR) TRAhR (H4IIe (AhR CALUX); against baseline cytotoxicity): 0.11; Specificity ratio (SRbaseline) SRNOI (SH-SY5Y cells; against baseline cytotoxicity): 0.24; Relative effect potency REPNOI (SH-SY5Y cells; relative to BPA): 0.0122 |
| Oc1ccc(C2(c3ccc(O)cc3)CCCCC2)cc1 [BPZ, 1,1'-Bis(4-hydroxyphenyl)cyclohexane] | – | – | 83.8 µM | 3.05e-05 M | 3.05e-05 M | 7.27E-05 | 3.45E-05 | -4.14 | 3.28E-05 | 3.30E-05 | -4.48 | 72.7 µM | 32.8 µM | 6.64 µM | 4.22E-06 | -5.04 | 9.12 µM | 4.31e-05 M | IC10, linear transformed (H4IIe (AhR CALUX); Bioassay AhR, cytotoxicity, dosing range all): 8.38E-05; IC10, linear (H4IIe (AhR CALUX); Bioassay AhR, cytotoxicity, dosing range all, linear model fit): 1.06E-04; logIC10 (H4IIe (AhR CALUX); Bioassay AhR, cytotoxicity, dosing range all, log-logistic model fit): -4.08; IC10, linear transformed (HEK293T (ERα); Bioassay ERα, cytotoxicity, dosing range all): 8.13E-06; IC10, linear (HEK293T (ERα); Bioassay ERα, cytotoxicity, dosing range all, linear model fit): 6.53E-06; logIC10 (HEK293T (ERα); Bioassay ERα, cytotoxicity, dosing range all, log-logistic model fit): -5.18; EC10 (SH-SY5Y cells; read-out: EC10, linear): 3.52e-05 M; EC10 (SH-SY5Y cells; read-out: logEC10): 3.02e-05 M |
| O=S(=O)(c1ccc(O)cc1)c1ccc(O)cc1 [BPS, 4,4'-Sulfonyldiphenol] | no effect | no effect | – | – | – | 1.39E-03 | 1.31E-03 | -2.86 | 1.22E-03 | 1.44E-03 | -2.92 | 1390 µM | 1220 µM | 520 µM | 3.12E-05 | -3.22 | 603 µM | 0.000411 M | logEC10 ([1]; Bioassay ARE, dosing range all, log-logistic model fit): no effect; IC10, linear transformed (HEK293T (ERα); Bioassay ERα, cytotoxicity, dosing range high): 1.03E-04; IC10, linear (HEK293T (ERα); Bioassay ERα, cytotoxicity, dosing range high, linear model fit): 5.20E-04; logIC10 (HEK293T (ERα); Bioassay ERα, cytotoxicity, dosing range high, log-logistic model fit): -3.33; IC10, linear transformed (HEK293T (ERα); ERα bioassay cytotoxicity, dosing range low): 5.72E-05; IC10, linear (HEK293T (ERα); ERα bioassay cytotoxicity, dosing range low, linear model): no cytotoxicity; logIC10 (HEK293T (ERα); ERα bioassay cytotoxicity, dosing range low, log-logistic model): no cytotoxicity; IC10, linear (HEK293H (PPARγ); PPARγ bioassay cytotoxicity, dosing range all, linear model): 6.15E-04; logEC10 (SH-SY5Y cells; NOI bioassay, dosing range all, log-logistic model): no effect |
